This series in a line: Evaluation of the plasma half-life for Hydrochlorothiazide for at least 24 hours following administration of Hydrochlorothiazide. The format is ADME, organism-based. The settings on record: human; dosed compound id 30, dosed compound name HYDROCHLOROTHIAZIDE, tissue Plasma.

`NS(=O)(=O)c1cc2c(cc1Cl)NCNS2(=O)=O` [HYDROCHLOROTHIAZIDE] registered a half-life of 5.6 to 14.8 h.

Source of the values: ChEMBL document CHEMBL3832055, “DailyMed|setid=e57a1fb3-1bf5-4562-982c-52a6f5fb36ed | HYDROCHLOROTHIAZIDE - hydrochlorothiazide tablet | Aphena Pharma Solutions - Tenness ee, LLC”.
